The subject of assay [1] is KARPAS422 human B cell lymphoma cell. Briefly: Cell proliferation, KARPAS422, 7 day treatment (WST-8). Format: cell-based. As to conditions: Homo sapiens, KARPAS-422, 168 h. The essentials:
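KARPAS422 cells seeded at 2 000-3 000 cells/well and exposed to serially diluted compounds for 7 days at 37 °C, 5% CO2. Growth measured by WST-8 (1-4 h, absorbance 450 nm). Readings normalized to DMSO-treated cells; IC50 from nonlinear regression.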
(In general: Tetrazolium dyes change colour on reduction, which living cells bring about.)

The subject of assay [2] is Pfeiffer cell line. Briefly: Anti-proliferative activity, Pfeiffer cell line, 7 day treatment. Format: cell-based. As to conditions: Homo sapiens, 168 h. The essentials:
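Cells seeded at 2 000-3 000 per well were treated with serially diluted compounds for 7 days at 37° C, 5% CO2. Growth was measured by WST-8 assay read at 450 nm after 1-4 h reagent incubation. Readings were normalized to DMSO-treated cells and IC50 values derived by nonlinear regression.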

Where [3] appears, read: anti-proliferative IC50, Karpas 422 cell line, 7 day treatment, read-out: Karpas Cell line.
Where [4] appears, read: anti-proliferative IC50, Pfeiffer cell line, 7 day treatment, read-out: Pfeiffer Cell line.
Where [5] appears, read: anti-proliferative IC50 class, Karpas 422 cell line, 7 day treatment, read-out: Karpas Cell line.
Where [6] appears, read: anti-proliferative IC50 class, Pfeiffer cell line, 7 day treatment, read-out: Pfeiffer Cell line.

Molecules are shown by their SMILES. Like-named read-outs stand apart in the source and are kept apart here.

Turning to `O=C1c2ncn3c(NCc4c(F)ccc5c4CCO5)ncc(c23)-c2sc(C(F)(F)F)nc2CN1C1CC1` [compound 91, 4-cyclopropyl-11-(((5-fluoro-2,3-dihydrobenzofuran-4-yl)methyl)amino)-7-(trifluoromethyl)-4,5-dihydro-3H-8-thia-2,4,6,10,11a-pentaazacyclopenta[4,5]cycloocta[1,2,3-cd]inden-3-one], the results for the IC50 in assay [1] (setting [3]) and in assay [2] (setting [4]) were 5.23 nM and 0.043 nM, respectively.

Turning to `O=C1c2ncn3c(NCc4c(F)ccc5c4CCO5)ncc(c23)-c2cnc(C(F)(F)F)cc2CN1CC1CCOCC1` [compound 45, 12-(((5-fluoro-2,3-dihydrobenzofuran-4-yl)methyl)amino)-4-((tetrahydro-2H-pyran-4-yl)methyl)-7-(trifluoromethyl)-4,5-dihydro-3H-2,4,8,11,12a-pentaazabenzo[4,5]cycloocta[1,2,3-cd]inden-3-one], the figures for the IC50 in assay [1] (setting [3]) and in assay [2] (setting [4]) were 6.15 nM and 0.61 nM, respectively.

Take `O=C1OCc2cc(C(F)(F)F)ccc2-c2cnc(NCc3cccc4c3OCO4)n3cnc1c23` [compound 27, 12-((benzo[d][1,3]dioxol-4-ylmethyl)amino)-7-(trifluoromethyl)-3H,5H-4-oxa-2,11,12a-triazabenzo[4,5]cycloocta[1,2,3-cd]inden-3-one]: the IC50 in assay [1] (setting [3]) and in assay [2] (setting [4]) was more than 100 nM in each case.

Take `O=C1c2ncn3c(NCc4c(F)ccc5c4CCO5)ncc(c23)-c2ccc(C(F)(F)F)nc2CN1CC1COCCO1` (stereo not shown) [compound 35, 4-((1,4-dioxan-2-yl)methyl)-12-(((5-fluoro-2,3-dihydrobenzofuran-4-yl)methyl)amino)-7-(trifluoromethyl)-4,5-dihydro-3H-2,4,6,11,12a-pentaazabenzo[4,5]cycloocta[1,2,3-cd]inden-3-one]: the IC50 amounted to 1.23 nM in assay [1] (setting [3]) and 0.12 nM in assay [2] (setting [4]).

Take `O=C1c2ncn3c(NCc4c(F)ccc5c4CCO5)ncc(c23)-c2cnc(C(F)(F)F)cc2CN1CC1(O)CC1` [compound 43, 12-(((5-fluoro-2,3-dihydrobenzofuran-4-yl)methyl)amino)-4-((1-hydroxycyclopropyl)methyl)-7-(trifluoromethyl)-4,5-dihydro-3H-2,4,8,11,12a-pentaazabenzo[4,5]cycloocta[1,2,3-cd]inden-3-one]: the IC50 was determined as 5.46 nM in assay [1] (setting [3]) and 1.05 nM in assay [2] (setting [4]).

Consider `O=C1c2ncn3c(NCc4c(F)ccc5c4CCO5)ncc(c23)-c2cnc(C(F)(F)F)cc2CN1C1CCC1` [E 5, 4-cyclobutyl-12-(((5-fluoro-2,3-dihydrobenzofuran-4-yl)methyl)amino)-7-(trifluoromethyl)-4,5-dihydro-3H-2,4,8,11,12a-pentaazabenzo[4,5]cycloocta[1,2,3-cd]inden-3-one], for which the IC50 in assay [1] (setting [5]) and in assay [2] (setting [6]) was less than 10 nM each time.

As for `Cc1ccc2c(n1)CCN(CC(F)(F)F)C(=O)c1ncn3c(NCc4c(F)ccc5c4CCO5)ncc-2c13` [E 30, 13-(((5-fluoro-2,3-dihydrobenzofuran-4-yl)methyl)amino)-8-methyl-4-(2,2,2-trifluoroethyl)-5,6-dihydro-2,4,7,12,13a-pentaazabenzo[4,5]cyclonona[1,2,3-cd]inden-3(4H)-one], the IC50 in assay [1] (setting [5]) and in assay [2] (setting [6]) was 10 to 100 nM each time.

With `CS(=O)(=O)c1ncn2c(NCc3c(F)ccc4c3CCO4)ncc(-c3ccccc3)c12` [Cpd. No. 99, N-((5-fluoro-2,3-dihydrobenzofuran-4-yl)methyl)-1-(methylsulfonyl)-8-phenylimidazo[1,5-c]pyrimidin-5-amine], the IC50 stood at 0.88 nM in assay [1] (read-out: Karpas Cell line (nM)) and 0.19 nM in assay [2] (Pfeiffer, read-out: Pfeiffer Cell line (nM)).

Regarding `O=C1OCc2cc(F)ccc2-c2cnc(NCc3cccc4c3CCO4)n3cnc1c23` [compound 9, 12-(((2,3-dihydrobenzofuran-4-yl)methyl)amino)-7-fluoro-3H,5H-4-oxa-2,11,12a-triazabenzo[4,5]cycloocta[1,2,3-cd]inden-3-one], the IC50 in assay [1] (setting [3]) turned out to be 5.6 nM; in assay [2] (setting [4]) it was 1.81 nM.

Consider `O=C1c2ncn3c(NCc4c(F)ccc5c4CCO5)ncc(c23)-c2ccc(CC3COCCO3)nc2CN1CC(F)(F)F` (stereo not shown) [E 49, 7-((1,4-dioxan-2-yl)methyl)-12-(((5-fluoro-2,3-dihydrobenzofuran-4-yl)methyl)amino)-4-(2,2,2-trifluoroethyl)-4,5-dihydro-3H-2,4,6,11,12a-pentaazabenzo[4,5]cycloocta[1,2,3-cd]inden-3-one], for which the IC50 in assay [1] (setting [5]) and in assay [2] (setting [6]) was less than 10 nM throughout.

As to `CC(F)(F)CN1Cc2cc(C(F)(F)F)ncc2-c2cnc(NCc3c(F)ccc4c3CCO4)n3cnc(c23)C1=O` [compound 82, 4-(2,2-difluoropropyl)-12-(((5-fluoro-2,3-dihydrobenzofuran-4-yl)methyl)amino)-7-(trifluoromethyl)-4,5-dihydro-3H-2,4,8,11,12a-pentaazabenzo[4,5]cycloocta[1,2,3-cd]inden-3-one], the IC50 in assay [1] (setting [3]) came out at 3.51 nM; in assay [2] (setting [4]), 0.074 nM.

`O=C1c2ncn3c(NCc4c(F)ccc5c4CCO5)ncc(c23)-c2ccc(C3CC3)nc2CN1CC(F)(F)F` [E 14, 7-cyclopropyl-12-(((5-fluoro-2,3-dihydrobenzofuran-4-yl)methyl)amino)-4-(2,2,2-trifluoroethyl)-4,5-dihydro-3H-2,4,6,11,12a-pentaazabenzo[4,5]cycloocta[1,2,3-cd]inden-3-one]: the IC50 in assay [1] (setting [5]) and in assay [2] (setting [6]) was less than 10 nM each time.

As for `Cc1ccc2c(n1)CNC(=O)c1ncn3c(NCc4c(F)ccc5c4CCO5)ncc-2c13` [compound 21, 12-(((5-fluoro-2,3-dihydrobenzofuran-4-yl)methyl)amino)-7-methyl-4,5-dihydro-3H-2,4,6,11,12a-pentaazabenzo[4,5]cycloocta[1,2,3-cd]inden-3-one], the IC50 in assay [1] (setting [3]) was found to be 14.9 nM; in assay [2] (setting [4]), 0.61 nM.

Consider `Cc1ccc2c(n1)Cn1c(C)cnc1-c1ncn3c(NCc4c(F)ccc5c4CCO5)ncc-2c13` [E 18, N-((5-fluoro-2,3-dihydrobenzofuran-4-yl)methyl)-5,8-dimethyl-6H-2,3,5a,7,12,13a-hexaazabenzo[4,5]cyclopenta[7,8]cycloocta[1,2,3-cd]inden-13-amine], for which the IC50 was 10 to 100 nM in assay [1] (setting [5]) and less than 10 nM in assay [2] (setting [6]).

For the compound `CC(C)c1ccc2c(n1)CN(CC(F)(F)F)C(=O)c1ncn3c(NCc4c(F)ccc5c4CCO5)ncc-2c13` [E 15, 12-(((5-fluoro-2,3-dihydrobenzofuran-4-yl)methyl)amino)-7-isopropyl-4-(2,2,2-trifluoroethyl)-4,5-dihydro-3H-2,4,6,11,12a-pentaazabenzo[4,5]cycloocta[1,2,3-cd]inden-3-one], the IC50 in assay [1] (setting [5]) and in assay [2] (setting [6]) was less than 10 nM each time.

In the case of `CC(C)N1Cc2cc(C#N)ccc2-c2cnc(NCc3c(F)ccc4c3CCO4)n3cnc(c23)C1=O` [E 4, 12-(((5-fluoro-2,3-dihydrobenzofuran-4-yl)methyl)amino)-4-isopropyl-3-oxo-4,5-dihydro-3H-2,4,11,12a-tetraazabenzo[4,5]cycloocta[1,2,3-cd]indene-7-carbonitrile], the IC50 in assay [1] (setting [5]) and in assay [2] (setting [6]) was less than 10 nM each time.

On to `O=C1OCc2ncccc2-c2cnc(NCc3c(F)ccc4c3CCO4)n3cnc1c23` [Cpd. No. 12, 12-(((5-fluoro-2,3-dihydrobenzofuran-4-yl)methyl)amino)-3H,5H-4-oxa-2,6,11,12a-tetraazabenzo[4,5]cycloocta[1,2,3-cd]inden-3-one], for which the IC50 in assay [1] (setting [3]) was 3.84 nM; in assay [2] (setting [4]) it was 0.65 nM.

The record behind these values is patent publication US12145944B2, “Imidazopyrimidines as EED inhibitors and the use thereof” (THE REGENTS OF THE UNIVERSITY OF MICHIGAN, priority 2019, dated 2024).
